For one assay, the target named is T1, PFCDPK1(P.falciparum) (Plasmodium falciparum, UniProt P62344).
T1 construct: gene CDPK1
Nature of the assay: biochemical. Further details: KinomeScan competition binding panel (DiscoveRx), percent of control at 1 uM. The note with it: read-out: Percent Control.

In another assay the target is ROCK2 (Homo sapiens, UniProt O75116). Put plainly: biochemical. Further details: KinomeScan competition binding panel (DiscoveRx), percent of control at 1 uM. To be noted: read-out: Percent Control. The method, boiled down:
(§1)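 KinomeScan technology used to profile binding across a panel of 456 kinases and mutants.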

For the next assay, the target named is HCK (Homo sapiens, UniProt P08631). Nature of the assay: biochemical. Further details: KinomeScan competition binding panel (DiscoveRx), percent of control at 1 uM. To be noted: read-out: Percent Control. The method, boiled down: as §1
A further assay deals with MUSK (Homo sapiens, UniProt O15146). Put plainly: biochemical. The note with it: read-out: Percent Control. Further details: KinomeScan competition binding panel (DiscoveRx), percent of control at 1 uM. The method, boiled down:
as §1

The next assay has as its target T2, SGK (Homo sapiens, UniProt O00141).
T2 construct: gene SGK1
Nature of the assay: biochemical. Further details: KinomeScan competition binding panel (DiscoveRx), percent of control at 1 uM. The note with it: read-out: Percent Control. The method, boiled down:
as §1

The target of another assay is T3, ICK (Homo sapiens, UniProt Q9UPZ9).
T3 construct: gene CILK1
T3 sequence (Q9UPZ9 whole entry): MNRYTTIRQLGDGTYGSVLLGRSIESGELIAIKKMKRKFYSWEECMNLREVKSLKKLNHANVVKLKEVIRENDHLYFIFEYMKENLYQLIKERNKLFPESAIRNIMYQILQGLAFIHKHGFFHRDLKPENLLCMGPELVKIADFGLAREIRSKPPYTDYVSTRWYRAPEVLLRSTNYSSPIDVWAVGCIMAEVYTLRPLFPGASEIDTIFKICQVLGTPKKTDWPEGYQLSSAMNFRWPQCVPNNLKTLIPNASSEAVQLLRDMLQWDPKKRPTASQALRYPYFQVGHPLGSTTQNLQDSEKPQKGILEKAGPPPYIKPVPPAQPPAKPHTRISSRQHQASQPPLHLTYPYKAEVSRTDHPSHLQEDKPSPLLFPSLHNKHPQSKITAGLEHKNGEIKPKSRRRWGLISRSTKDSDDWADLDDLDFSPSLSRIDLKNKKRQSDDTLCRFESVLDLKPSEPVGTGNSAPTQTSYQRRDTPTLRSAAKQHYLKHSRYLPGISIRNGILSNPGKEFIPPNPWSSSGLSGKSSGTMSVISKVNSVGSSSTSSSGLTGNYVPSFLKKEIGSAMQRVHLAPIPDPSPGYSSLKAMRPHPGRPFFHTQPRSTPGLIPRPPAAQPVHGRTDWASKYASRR
Nature of the assay: biochemical. Further details: KinomeScan competition binding panel (DiscoveRx), percent of control at 1 uM. To be noted: read-out: Percent Control. The method, boiled down:
as §1

The target of another assay is PIK3CA(Q546K) (Homo sapiens, UniProt P42336, Q546K). Nature of the assay: biochemical. Further details: KinomeScan competition binding panel (DiscoveRx), percent of control at 1 uM. To be noted: read-out: Percent Control. In outline:
as §1

The next assay deals with BRAF(V600E) (Homo sapiens, UniProt P15056, V600E). Put plainly: biochemical. Further details: KinomeScan competition binding panel (DiscoveRx), percent of control at 1 uM. The note with it: read-out: Percent Control. The method, boiled down: as §1
Sequence of BRAF(V600E) (P15056 whole entry V600E): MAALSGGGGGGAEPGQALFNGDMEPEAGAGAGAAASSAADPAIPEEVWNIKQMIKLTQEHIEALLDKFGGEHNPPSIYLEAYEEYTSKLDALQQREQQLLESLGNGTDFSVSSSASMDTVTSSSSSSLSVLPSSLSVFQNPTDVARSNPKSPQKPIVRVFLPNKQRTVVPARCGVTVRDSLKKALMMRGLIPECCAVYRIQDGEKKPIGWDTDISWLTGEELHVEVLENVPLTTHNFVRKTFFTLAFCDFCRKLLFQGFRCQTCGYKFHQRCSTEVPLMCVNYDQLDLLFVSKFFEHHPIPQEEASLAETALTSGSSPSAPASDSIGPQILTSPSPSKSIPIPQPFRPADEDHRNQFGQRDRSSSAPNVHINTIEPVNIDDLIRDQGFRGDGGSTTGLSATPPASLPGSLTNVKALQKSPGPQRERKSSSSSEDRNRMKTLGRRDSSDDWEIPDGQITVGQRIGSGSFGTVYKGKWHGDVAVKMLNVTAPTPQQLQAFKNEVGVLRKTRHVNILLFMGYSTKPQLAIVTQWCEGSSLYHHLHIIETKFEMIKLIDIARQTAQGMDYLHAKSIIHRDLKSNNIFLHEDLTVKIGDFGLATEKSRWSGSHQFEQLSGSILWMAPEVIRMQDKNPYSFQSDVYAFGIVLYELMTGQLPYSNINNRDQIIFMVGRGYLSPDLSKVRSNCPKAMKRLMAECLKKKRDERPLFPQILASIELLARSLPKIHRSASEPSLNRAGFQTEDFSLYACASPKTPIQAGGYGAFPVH
A further assay has as its target PAK6 (Homo sapiens, UniProt Q9NQU5). Nature of the assay: biochemical. Further details: KinomeScan competition binding panel (DiscoveRx), percent of control at 1 uM. To be noted: read-out: Percent Control. In outline: as §1
Another assay addresses T4, MEK1 (Homo sapiens, UniProt Q02750).
T4 construct: gene MAP2K1
Nature of the assay: biochemical. Further details: KinomeScan competition binding panel (DiscoveRx), percent of control at 1 uM. To be noted: read-out: Percent Control. The method, boiled down: as §1

The next assay addresses IRAK3 (Homo sapiens, UniProt Q9Y616). Put plainly: biochemical. Further details: KinomeScan competition binding panel (DiscoveRx), percent of control at 1 uM. To be noted: read-out: Percent Control. The method, boiled down: as §1
For another assay, the target named is CAMK1G (Homo sapiens, UniProt Q96NX5). Put plainly: biochemical. Further details: KinomeScan competition binding panel (DiscoveRx), percent of control at 1 uM. The note with it: read-out: Percent Control. The method, boiled down: as §1
A further assay concerns the target RET(M918T) (Homo sapiens, UniProt P07949, M918T). Nature of the assay: biochemical. Further details: KinomeScan competition binding panel (DiscoveRx), percent of control at 1 uM. The note with it: read-out: Percent Control. The method, boiled down:
as §1

Another assay has as its target TAOK1 (Homo sapiens, UniProt Q7L7X3). Put plainly: biochemical. Further details: KinomeScan competition binding panel (DiscoveRx), percent of control at 1 uM. The note with it: read-out: Percent Control. In outline:
as §1

The target in the next assay is CAMK2G (Homo sapiens, UniProt Q13555). Put plainly: biochemical. Further details: KinomeScan competition binding panel (DiscoveRx), percent of control at 1 uM. To be noted: read-out: Percent Control. The method, boiled down:
as §1

In another assay the target is T5, LOK (Homo sapiens, UniProt O94804).
T5 construct: gene STK10
Nature of the assay: biochemical. Further details: KinomeScan competition binding panel (DiscoveRx), percent of control at 1 uM. To be noted: read-out: Percent Control. In outline: as §1

For assay [1], the target named is T6, ABL1(E255K)-phosphorylated (Homo sapiens, UniProt P00519, E255K).
T6 construct: phosphorylated
Put plainly: biochemical. Further details: KinomeScan competition binding panel (DiscoveRx), percent of control at 1 uM. To be noted: read-out: Percent Control. In outline:
as §1

The target of the next assay is T7, MEK6 (Homo sapiens, UniProt P52564).
T7 construct: gene MAP2K6
Put plainly: biochemical. Further details: KinomeScan competition binding panel (DiscoveRx), percent of control at 1 uM. To be noted: read-out: Percent Control. The method, boiled down:
as §1

Assay [2] has as its target T8, ABL1(Y253F)-phosphorylated (Homo sapiens, UniProt P00519, Y253F).
T8 construct: phosphorylated
Put plainly: biochemical. To be noted: read-out: Percent Control. Further details: KinomeScan competition binding panel (DiscoveRx), percent of control at 1 uM. In outline: as §1

A further assay concerns the target RIOK2 (Homo sapiens, UniProt Q9BVS4). Nature of the assay: biochemical. Further details: KinomeScan competition binding panel (DiscoveRx), percent of control at 1 uM. The note with it: read-out: Percent Control. The method, boiled down: as §1
The target in another assay is T9, PFPK5(P.falciparum) (Plasmodium falciparum, UniProt P61075).
T9 construct: gene CRK2
Nature of the assay: biochemical. Further details: KinomeScan competition binding panel (DiscoveRx), percent of control at 1 uM. To be noted: read-out: Percent Control.

Assay [3] addresses T10, BTK kinase (Bruton's tyrosine kinase) (Homo sapiens, UniProt Q06187).
T10 construct: purified BTK kinase
Put plainly: ADP-Glo biochemical kinase assay; supported by Y551 autophosphorylation of wt vs C481S BTK and KinomeScan binding. Background: ADP-Glo turns the ADP formed in a reaction into a luminescent signal.

The target in another assay is PKNB(M.tuberculosis) (Mycobacterium tuberculosis, UniProt P9WI81). Put plainly: biochemical. Further details: KinomeScan competition binding panel (DiscoveRx), percent of control at 1 uM. The note with it: read-out: Percent Control.
Sequence of PKNB(M.tuberculosis) (P9WI81 whole entry): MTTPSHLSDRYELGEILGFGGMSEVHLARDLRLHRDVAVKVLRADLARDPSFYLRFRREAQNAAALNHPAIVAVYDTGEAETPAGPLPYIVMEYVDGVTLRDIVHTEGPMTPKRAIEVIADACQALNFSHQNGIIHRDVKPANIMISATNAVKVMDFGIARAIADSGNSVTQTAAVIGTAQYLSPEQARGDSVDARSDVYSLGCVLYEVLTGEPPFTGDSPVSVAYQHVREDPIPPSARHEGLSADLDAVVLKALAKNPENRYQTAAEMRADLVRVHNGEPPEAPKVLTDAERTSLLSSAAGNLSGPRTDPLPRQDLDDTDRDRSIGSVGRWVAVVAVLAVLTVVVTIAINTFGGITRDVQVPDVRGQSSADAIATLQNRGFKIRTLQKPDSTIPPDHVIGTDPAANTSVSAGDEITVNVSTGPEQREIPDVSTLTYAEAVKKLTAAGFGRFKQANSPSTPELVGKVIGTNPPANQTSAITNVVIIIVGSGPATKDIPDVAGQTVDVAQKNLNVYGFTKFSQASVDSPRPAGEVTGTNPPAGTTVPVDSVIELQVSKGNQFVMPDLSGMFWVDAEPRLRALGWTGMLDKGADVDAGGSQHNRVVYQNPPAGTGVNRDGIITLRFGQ

By IC50 is commonly meant the concentration that inhibits the measured activity by half. Read a high IC50 as weaker potency in that assay.

Sequence of MUSK (O15146 whole entry): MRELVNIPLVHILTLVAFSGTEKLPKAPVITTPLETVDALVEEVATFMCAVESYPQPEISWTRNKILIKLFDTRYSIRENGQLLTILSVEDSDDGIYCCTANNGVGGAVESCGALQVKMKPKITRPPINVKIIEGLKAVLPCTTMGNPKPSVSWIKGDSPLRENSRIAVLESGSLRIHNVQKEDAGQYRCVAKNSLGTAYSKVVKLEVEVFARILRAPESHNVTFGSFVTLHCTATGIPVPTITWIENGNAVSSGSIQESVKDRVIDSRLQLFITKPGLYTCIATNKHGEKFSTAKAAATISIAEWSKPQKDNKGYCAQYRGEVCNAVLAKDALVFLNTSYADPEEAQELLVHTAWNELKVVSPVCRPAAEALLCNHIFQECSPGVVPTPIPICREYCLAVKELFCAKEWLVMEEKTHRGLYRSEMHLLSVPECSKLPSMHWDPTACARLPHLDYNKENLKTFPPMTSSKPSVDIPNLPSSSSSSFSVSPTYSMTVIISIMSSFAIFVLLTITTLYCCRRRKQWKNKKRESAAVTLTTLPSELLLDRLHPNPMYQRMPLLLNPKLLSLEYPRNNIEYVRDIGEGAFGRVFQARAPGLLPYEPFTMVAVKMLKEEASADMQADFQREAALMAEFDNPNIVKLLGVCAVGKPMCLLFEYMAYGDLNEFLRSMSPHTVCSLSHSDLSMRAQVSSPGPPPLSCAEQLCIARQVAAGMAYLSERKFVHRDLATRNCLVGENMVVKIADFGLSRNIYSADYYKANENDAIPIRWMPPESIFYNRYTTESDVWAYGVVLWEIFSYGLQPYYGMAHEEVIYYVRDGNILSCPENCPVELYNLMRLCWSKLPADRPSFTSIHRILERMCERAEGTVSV
T2 sequence (O00141 whole entry): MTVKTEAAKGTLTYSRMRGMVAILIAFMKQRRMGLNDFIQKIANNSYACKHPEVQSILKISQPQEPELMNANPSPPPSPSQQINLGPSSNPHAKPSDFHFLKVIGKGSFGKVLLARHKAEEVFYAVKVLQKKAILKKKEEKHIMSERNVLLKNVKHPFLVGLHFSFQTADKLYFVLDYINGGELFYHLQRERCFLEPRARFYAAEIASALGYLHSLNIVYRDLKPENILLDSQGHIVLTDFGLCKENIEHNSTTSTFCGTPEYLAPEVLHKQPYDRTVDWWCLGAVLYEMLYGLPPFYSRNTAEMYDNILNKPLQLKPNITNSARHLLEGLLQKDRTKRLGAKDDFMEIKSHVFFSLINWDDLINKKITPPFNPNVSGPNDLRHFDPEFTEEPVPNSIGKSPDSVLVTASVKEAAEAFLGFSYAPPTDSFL
Sequence of TAOK1 (Q7L7X3 whole entry): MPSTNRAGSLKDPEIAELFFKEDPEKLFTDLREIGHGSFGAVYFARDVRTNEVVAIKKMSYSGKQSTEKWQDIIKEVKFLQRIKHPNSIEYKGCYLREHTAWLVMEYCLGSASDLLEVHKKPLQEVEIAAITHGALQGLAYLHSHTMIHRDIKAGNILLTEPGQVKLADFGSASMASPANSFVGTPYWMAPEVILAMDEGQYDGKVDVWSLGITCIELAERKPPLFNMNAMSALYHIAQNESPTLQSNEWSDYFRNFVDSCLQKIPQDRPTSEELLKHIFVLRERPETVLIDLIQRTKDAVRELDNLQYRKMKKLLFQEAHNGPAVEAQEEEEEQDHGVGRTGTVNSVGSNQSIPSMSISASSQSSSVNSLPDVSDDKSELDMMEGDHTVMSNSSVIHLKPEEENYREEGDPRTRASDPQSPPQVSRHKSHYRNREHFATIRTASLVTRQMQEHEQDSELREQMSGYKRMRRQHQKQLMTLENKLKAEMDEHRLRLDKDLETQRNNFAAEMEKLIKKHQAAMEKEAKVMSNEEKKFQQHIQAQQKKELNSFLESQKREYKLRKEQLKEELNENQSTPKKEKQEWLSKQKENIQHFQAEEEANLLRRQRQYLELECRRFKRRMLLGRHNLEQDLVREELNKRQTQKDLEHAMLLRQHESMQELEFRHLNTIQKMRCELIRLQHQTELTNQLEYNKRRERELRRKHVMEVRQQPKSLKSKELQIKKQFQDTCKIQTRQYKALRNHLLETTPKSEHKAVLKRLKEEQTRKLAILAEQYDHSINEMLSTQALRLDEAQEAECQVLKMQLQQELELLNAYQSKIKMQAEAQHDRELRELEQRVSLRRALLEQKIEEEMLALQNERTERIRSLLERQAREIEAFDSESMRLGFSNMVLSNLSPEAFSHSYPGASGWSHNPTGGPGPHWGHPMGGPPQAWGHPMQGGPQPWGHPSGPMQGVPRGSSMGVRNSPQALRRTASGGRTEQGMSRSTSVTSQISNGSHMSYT
Sequence of RIOK2 (Q9BVS4 whole entry): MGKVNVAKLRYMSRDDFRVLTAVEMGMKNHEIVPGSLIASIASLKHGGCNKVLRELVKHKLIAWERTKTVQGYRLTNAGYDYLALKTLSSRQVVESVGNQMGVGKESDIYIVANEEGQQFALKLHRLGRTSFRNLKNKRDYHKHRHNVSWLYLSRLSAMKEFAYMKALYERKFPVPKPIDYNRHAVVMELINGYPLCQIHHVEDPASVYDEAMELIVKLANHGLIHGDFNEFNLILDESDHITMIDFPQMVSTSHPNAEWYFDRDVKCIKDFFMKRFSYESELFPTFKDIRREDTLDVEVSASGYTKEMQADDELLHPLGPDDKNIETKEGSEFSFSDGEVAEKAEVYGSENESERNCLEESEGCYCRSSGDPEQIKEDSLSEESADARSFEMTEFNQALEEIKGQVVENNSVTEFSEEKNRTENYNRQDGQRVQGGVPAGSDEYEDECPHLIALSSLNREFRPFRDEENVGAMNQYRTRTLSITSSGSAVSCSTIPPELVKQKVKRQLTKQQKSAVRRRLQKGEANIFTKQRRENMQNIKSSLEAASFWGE

Turning to `C=CC(=O)Nc1cc(-n2c(=O)ccc3cnc4ccc(-n5cccn5)cc4c32)ccc1C` [CHMFL-BTK-11], the remaining binding at 1 µM on PFCDPK1(P.falciparum) amounted to 97%; at ROCK2, 97%; on HCK, 100%; on MUSK, 100%; at SGK it was 65%; on ICK, 100%. The remaining binding at 1 µM at PIK3CA(Q546K) came out at 97%; at BRAF(V600E) it was 100%; on PAK6, 100%; on MEK1, 100%; at IRAK3, 98%; at CAMK1G it was 84%. Besides, the remaining binding at 1 µM amounted to 100% at RET(M918T); 100% on TAOK1; 73% on CAMK2G; 97% on LOK; 92% in [1]; 79% at MEK6. Further, the remaining binding at 1 µM in assay [2] was determined as 89%; at RIOK2 it was 87%; at PFPK5(P.falciparum) it was 100%; at PKNB(M.tuberculosis), 69%. In assay [3], this molecule yielded an IC50 of 26.8 nM.

For the origin of these results see PMC5428509, “Irreversible inhibition of BTK kinase by a novel highly selective inhibitor CHMFL-BTK-11 suppresses inflammatory response in rheumatoid arthritis model” (Scientific Reports, 2017).
